Measured values published in US10377791B2, “Therapeutically active estratrienthiazole derivatives as inhibitors of 17 B-hydroxysteroid dehydrogenase, type 1” (FORENDO PHARMA LTD, priority 2013, dated 2019).
Counter-ions that a name gives are not always drawn.

Legend:
[1] = human, tissue homogenate, 1 h
Procedure: The in vitro metabolic stability of the compounds of the invention was determined for exemplified compounds using human liver microsome and homogenate incubations. The incubation time points used with or without appropriate cofactors were 0 min and 60 min. Samples were collected at both time points and substrates were detected using LC/PDA/TOF-MS.

[2] = target: T1, recombinant human 17β-HSD2 (Homo sapiens, UniProt P37059); experiment: Inhibition of recombinant human 17β-HSD2; type: biochemical; conditions: inhibitor at 1 μM; 50 nM estradiol, 1 mM NADH, 30 min at RT; read-out: 17β-HSD2 Inhibition % at 1 μM
T1 construct: made in house; host or cells: Sd9 (Sf9) insect cells, baculovirus (Bac to Bac Expression System)
T1 sequence (P37059 1-387): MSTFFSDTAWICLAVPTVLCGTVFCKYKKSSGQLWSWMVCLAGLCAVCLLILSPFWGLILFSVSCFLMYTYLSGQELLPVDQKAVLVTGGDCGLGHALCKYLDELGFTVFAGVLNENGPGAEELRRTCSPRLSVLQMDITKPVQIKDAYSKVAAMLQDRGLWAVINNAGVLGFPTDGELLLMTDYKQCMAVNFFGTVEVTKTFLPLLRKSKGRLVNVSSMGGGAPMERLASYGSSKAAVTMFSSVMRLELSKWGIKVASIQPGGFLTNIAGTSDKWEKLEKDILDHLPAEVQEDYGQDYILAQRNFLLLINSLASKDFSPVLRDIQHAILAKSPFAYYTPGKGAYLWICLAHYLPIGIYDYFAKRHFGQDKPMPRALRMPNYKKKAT
How it was run: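 Membrane extract of baculovirus-expressed enzyme in Sf9 cells (4 μg/ml) incubated in 20 mM KH2PO4 pH 8.5 with 50 nM estradiol (³H-tracer) and 1 mM NADH, 30 min at RT, 1% DMSO, inhibitor at 1 μM or 0.1 μM. TCA-stopped; estradiol-to-estrone conversion by radio-HPLC; % inhibition = 100 − % conversion.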

[3] = target: T2, recombinant human 17β-HSD1 (Homo sapiens, UniProt P14061); experiment: Inhibition of recombinant human 17β-HSD1; type: biochemical; conditions: inhibitor at 1 μM; 30 nM estrone, 1 mM NADPH, 30 min at RT; read-out: 17β-HDS1 Inhibition % at 1 μM
T2 construct: made in house; host or cells: Sd9 (Sf9) insect cells, baculovirus (Bac to Bac Expression System)
T2 sequence (P14061 1-328): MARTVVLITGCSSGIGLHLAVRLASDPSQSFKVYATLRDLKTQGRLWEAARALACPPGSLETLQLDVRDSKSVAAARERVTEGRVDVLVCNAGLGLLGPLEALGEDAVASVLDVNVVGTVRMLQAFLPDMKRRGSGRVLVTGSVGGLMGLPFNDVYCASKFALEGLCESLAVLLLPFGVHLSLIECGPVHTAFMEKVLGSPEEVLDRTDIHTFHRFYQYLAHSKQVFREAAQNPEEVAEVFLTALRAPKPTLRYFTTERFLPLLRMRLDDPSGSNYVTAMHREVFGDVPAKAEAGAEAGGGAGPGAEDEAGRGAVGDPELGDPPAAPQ
How it was run: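 Microsomal enzyme from baculovirus-infected insect cells (1 μg/ml) incubated 30 min at RT in 20 mM KH2PO4 pH 7.4 with 30 nM ³H-estrone and 1 mM NADPH, inhibitor at 1 μM or 0.1 μM, 1% DMSO. TCA-stopped; estrone/estradiol separated by radio-HPLC; % inhibition = 100 − % conversion.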

Structure (SMILES) | In vitro metabolic stability, % remaining after 60 min [1] [%] | inhibition at 1 µM [2] [%] | inhibition at 1 µM [3] [%]
Cc1cnc(NC(=O)CC[C@@H]2CC(=O)[C@@]3(C)CCC4c5ccc(OS(C)(=O)=O)cc5CCC4C23)s1 (stereo partly drawn) [Compound 2, Methanesulphonic acid (13S,15R)-13-methyl-15-[2-(5-methylthiazol-2-ylcarbamoyl)-ethyl]-17-oxo-7,8,9,11,12,13,14,15,16,17-decahydro-6H-cyclopenta[a]phenanthren-3-yl ester] | 25 | 11 | 95
Cc1cnc(NC(=O)CC[C@@H]2CC(=O)[C@@]3(C)CCC4c5ccc(OC(=O)C(C)(C)C)cc5CCC4C23)s1 (stereo partly drawn) [Compound 3, 2,2-Dimethyl-propionic acid (13S,15R)-13-methyl-15-[2-(5-methylthiazol-2-ylcarbamoyl)-ethyl]-17-oxo-7,8,9,11,12,13,14,15,16,17-decahydro-6H-cyclopenta[a]phenanthren-3-yl ester] | 30 |  | 
Cc1cnc(NC(=O)CC[C@@H]2CC(=O)[C@@]3(C)CCC4c5ccc(OS(=O)(=O)O)cc5CCC4C23)s1 (stereo partly drawn) [Compound 5, Sulphuric acid mono-{(13S,15R)-13-methyl-15-[2-(5-methylthiazol-2-ylcarbamoyl)-ethyl]-17-oxo-7,8,9,11,12,13,14,15,16,17-decahydro-6H-cyclopenta[a]phenanthren-3-yl} ester triethylamine salt] | 50 | 4 | 92
Cc1cnc(NC(=O)CC[C@@H]2CC(=O)[C@@]3(C)CCC4c5ccc(OCc6ccccc6)cc5CCC4C23)s1 (stereo partly drawn) [Compound 30, 3-((13S,15R)-3-Benzyloxy-13-methyl-17-oxo-7,8,9,11,12,13,14,15,16,17-decahydro-6H-cyclopenta[a]phenanthren-15-yl)-N-(5-methylthiazol-2-yl)propanamide] | 74 |  | 
Cc1cnc(NC(=O)CC[C@@H]2CC(=O)[C@@]3(C)CCC4c5cc6ncoc6cc5CCC4C23)s1 (stereo partly drawn) [Compound 47, 3-((3R,12aS)-12a-methyl-1-oxo-2,3,3a,3b,4,5,10b,11,12,12a-decahydro-1H-cyclopenta[7,8]phenanthro[3,2-d]oxazol-3-yl)-N-(5-methylthiazol-2-yl)propanamide] | 48 | 2 | 87
Cc1cnc(NC(=O)CC[C@@H]2CC(=O)[C@@]3(C)CCC4c5cc(Br)c(O)c(Br)c5CCC4C23)s1 (stereo partly drawn) [Compound 58, 3-((13S,15R)-2,4-dibromo-3-hydroxy-13-methyl-17-oxo-7,8,9,11,12,13,14,15,16,17-decahydro-6H-cyclopenta[a]phenanthren-15-yl)-N-(5-methylthiazol-2-yl)propanamide] | 81 | 5 | 95
Cc1cnc(NC(=O)CC[C@@H]2CC(=O)[C@@]3(C)CCC4c5ccccc5CCC4C23)s1 (stereo partly drawn) [Compound 83, 3-((13S,15R)-13-methyl-17-oxo-7,8,9,11,12,13,14,15,16,17-decahydro-6H-cyclopenta[a]phenanthren-15-yl)-N-(5-methylthiazol-2-yl)propanamide] | 74 | 1 | 92
Cc1cnc(NC(=O)CC[C@@H]2CC(=O)[C@@]3(C)CCC4c5cc(C#N)c(O)cc5CCC4C23)s1 (stereo partly drawn) [Compound 91, 3-((13S,15R)-2-cyano-3-hydroxy-13-methyl-17-oxo-7,8,9,11,12,13,14,15,16,17-decahydro-6H-cyclopenta[a]phenanthren-15-yl)-N-(5-methylthiazol-2-yl)propanamide] |  | 1 | 97
Cc1cnc(NC(=O)CC[C@@H]2CC(=O)[C@@]3(C)CCC4c5ccc(O)c(C#N)c5CCC4C23)s1 (stereo partly drawn) [Compound 92, 3-((13S,15R)-4-cyano-3-hydroxy-13-methyl-17-oxo-7,8,9,11,12,13,14,15,16,17-decahydro-6H-cyclopenta[a]phenanthren-15-yl)-N-(5-methylthiazol-2-yl)propanamide] |  | 0 | 97
COc1ccc2c(c1)CCC1C2CC[C@]2(C)C(=O)C(O)[C@@H](CCC(=O)Nc3ncc(C)s3)C12 (stereo partly drawn) [Compound 93, 3-((13S,15S)-16-hydroxy-3-methoxy-13-methyl-17-oxo-7,8,9,11,12,13,14,15,16,17-decahydro-6H-cyclopenta[a]phenanthren-15-yl)-N-(5-methylthiazol-2-yl)propanamide] |  | 3 | 54
Cc1cnc(NC(=O)CC[C@@H]2CC(=O)[C@@]3(C)CCC4c5c([N+](=O)[O-])ccc(O)c5CCC4C23)s1 (stereo partly drawn) [Compound 94, 3-((13S,15R)-4-hydroxy-13-methyl-1-nitro-17-oxo-7,8,9,11,12,13,14,15,16,17-decahydro-6H-cyclopenta[a]phenanthren-15-yl)-N-(5-methylthiazol-2-yl)propanamide] |  | 4 | 95
Cc1cnc(NC(=O)CC[C@@H]2/C(=C/O)C(=O)[C@@]3(C)CCC4c5ccc(O)cc5CCC4C23)s1 (stereo partly drawn) [Compound 95, 3-{(13S,15S)-3-Hydroxy-16-[1-hydroxy-methylidene]-13-methyl-17-oxo-7,8,9,11,12,13,14,15,16,17-decahydro-6H-cyclopenta[a]phenanthren-15-yl}-N-(5-methylthiazol-2-yl)propanamide] |  | 3 | 97
COc1ccc2c(c1)CCC1C2CC[C@]2(C)C(=O)/C(=C/O)[C@@H](CCC(=O)Nc3ncc(C)s3)C12 (stereo partly drawn) [Compound 97, 3-{(13S,15S)-16-[1-Hydroxy-methylidene]-3-methoxy-13-methyl-17-oxo-7,8,9,11,12,13,14,15,16,17-decahydro-6H-cyclopenta[a]phenanthren-15-yl}-N-(5-methylthiazol-2-yl)propanamide] |  | 11 | 92
Cc1cnc(NC(=O)CC[C@@H]2CC(=O)[C@@]3(C)CCC4c5cccc(C(C)(C)C)c5CCC4C23)s1 (stereo partly drawn) [Compound 105, 3-((13S,15R)-4-(tert-butyl)-13-methyl-17-oxo-7,8,9,11,12,13,14,15,16,17-decahydro-6H-cyclopenta[a]phenanthren-15-yl)-N-(5-methylthiazol-2-yl)propanamide] |  | 16 | 90
COc1ccc2c(c1)CCC1C2CC[C@]2(C)C(=O)C[C@@H](CCC(=O)Nc3ncc(C)s3)C12 (stereo partly drawn) [Compound X, 3-((13S,15R)-3-Methoxy-13-methyl-17-oxo-7,8,9,11,12,13,14,15,16,17-decahydro-6H-cyclopenta[a]phenanthren-15-yl)-N-(5-methylthiazol-2-yl)propanamide, reference compound] |  | 3 | 96
